In ChEMBL document CHEMBL4184197 (Bioorg Med Chem, 2018) one finds AUC, Ratio EC50 and bioavailability data, which are given here for 33 compounds.

Data set [1] relates to Rattus norvegicus. The experiment in a line: AUC in Sprague-Dawley rat at 10 mg/kg, po by LC-MS/MS analysis. The class given is ADME, organism-based. The settings on record: in vivo.
The target of data set [2] is T1, Retinoic acid receptor alpha (Mus musculus) (UniProt P11416).
T1 sequence (whole entry): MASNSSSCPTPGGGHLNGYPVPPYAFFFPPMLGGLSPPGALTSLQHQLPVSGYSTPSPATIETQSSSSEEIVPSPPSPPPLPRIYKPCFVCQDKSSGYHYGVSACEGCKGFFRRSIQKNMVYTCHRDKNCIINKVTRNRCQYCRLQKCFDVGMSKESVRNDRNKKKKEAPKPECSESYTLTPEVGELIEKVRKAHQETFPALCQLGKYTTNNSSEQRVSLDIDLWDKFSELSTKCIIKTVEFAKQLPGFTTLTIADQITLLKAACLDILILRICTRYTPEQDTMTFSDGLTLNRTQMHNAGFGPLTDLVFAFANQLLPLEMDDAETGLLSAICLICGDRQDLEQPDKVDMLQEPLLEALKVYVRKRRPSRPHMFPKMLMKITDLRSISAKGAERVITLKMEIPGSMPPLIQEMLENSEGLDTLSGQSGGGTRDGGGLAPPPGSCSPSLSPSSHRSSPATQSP
Nature of the data set: Transactivation of mouse Gal4-fused RARalpha-LBD expressed in COS-7 cells after 1 day by bright-Glo reagent based assay relative to control ATRA. The data set is classed as cell-based.

In data set [3] the target is T2, Retinoic acid receptor beta (Mus musculus) (UniProt P22605).
T2 sequence (whole entry): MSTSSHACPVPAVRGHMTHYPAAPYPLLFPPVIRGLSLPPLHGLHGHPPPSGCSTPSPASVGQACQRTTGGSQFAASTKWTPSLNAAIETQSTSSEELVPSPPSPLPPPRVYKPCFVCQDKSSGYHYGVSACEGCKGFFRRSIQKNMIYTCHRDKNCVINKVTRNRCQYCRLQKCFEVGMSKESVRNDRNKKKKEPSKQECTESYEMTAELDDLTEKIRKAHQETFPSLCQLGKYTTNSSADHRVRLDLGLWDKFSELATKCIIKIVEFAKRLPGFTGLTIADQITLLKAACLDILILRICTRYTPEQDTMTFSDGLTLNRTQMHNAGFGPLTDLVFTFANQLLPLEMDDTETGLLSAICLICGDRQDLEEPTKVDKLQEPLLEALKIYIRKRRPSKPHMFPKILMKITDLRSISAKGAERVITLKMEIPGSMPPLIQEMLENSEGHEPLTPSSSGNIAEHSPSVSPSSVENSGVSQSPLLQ
The experiment in a line: Transactivation of mouse Gal4-fused RARbeta-LBD expressed in COS-7 cells after 1 day by bright-Glo reagent based assay relative to control ATRA. The class given is cell-based.

Data set [4] concerns the target T3, Retinoic acid receptor gamma (Mus musculus) (UniProt P18911).
T3 sequence (whole entry): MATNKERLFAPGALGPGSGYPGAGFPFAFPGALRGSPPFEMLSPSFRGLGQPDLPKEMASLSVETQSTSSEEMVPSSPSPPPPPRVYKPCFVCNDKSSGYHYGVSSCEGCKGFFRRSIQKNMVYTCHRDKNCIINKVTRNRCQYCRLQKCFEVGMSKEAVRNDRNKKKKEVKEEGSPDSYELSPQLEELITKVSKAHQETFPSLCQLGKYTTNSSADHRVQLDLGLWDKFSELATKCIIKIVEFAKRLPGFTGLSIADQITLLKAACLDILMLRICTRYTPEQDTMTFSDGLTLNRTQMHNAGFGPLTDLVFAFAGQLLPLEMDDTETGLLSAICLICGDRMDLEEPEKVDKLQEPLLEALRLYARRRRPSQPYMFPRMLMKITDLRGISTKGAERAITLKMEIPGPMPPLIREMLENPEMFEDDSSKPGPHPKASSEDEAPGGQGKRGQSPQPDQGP
Nature of the data set: Transactivation of mouse Gal4-fused RARgamma-LBD expressed in COS-7 cells after 1 day by bright-Glo reagent based assay relative to control ATRA. The data set is classed as cell-based.

A short description of data set [5]: Oral bioavailability in Sprague-Dawley rat at 10 mg/kg by LC-MS/MS analysis. The data set is classed as ADME, organism-based. The settings on record: in vivo.

As usually defined, the AUC is the area under the concentration-time curve, a measure of exposure. As to `CCOc1c(OC(C)C)cc(C(=O)Nc2ccc(C(=O)O)cc2)cc1OC(C)C`, the AUC in data set [1] was determined as 783782 ng·min/mL.

Turning to `COc1c(Cl)cc(C(=O)Nc2ccc(C(=O)O)c(C)c2)cc1OC(C)C`, the Ratio EC50 in data set [2] was 4.7.

`Cc1cc(NC(=O)c2cc(Cl)c(OC(C)(C)C)c(OC(C)(C)C)c2)ccc1C(=O)O`: the Ratio EC50 in data set [2] worked out at 0.64. Take `CCOc1cc(C(=O)Nc2ccc(C(=O)O)cc2)cc(OCC)c1OCC`: the Ratio EC50 is 64100 in data set [3], 5880 in data set [4] and 368 to 370 in data set [2]. With `COc1c(Cl)cc(C(=O)Nc2ccc(C(=O)O)cc2)cc1Cl`, the Ratio EC50 in data set [3] is 9520; in data set [4], 5850; in data set [2] it was 30.

As for `CCOc1c(Cl)cc(C(=O)Nc2ccc(C(=O)O)c(C)c2)cc1OCC1CC1`, the Ratio EC50 in data set [2] amounted to 2.6. For `O=C(O)c1ccc(NC(=O)c2cc(Cl)c(OC3CCC3)c(OC3CCC3)c2)cc1`, the Ratio EC50 in data set [3] was determined as 53; in data set [4], 1060; in data set [2] it was 2.4. For `CC1(C)CCC(C)(C)c2c1cc(C(=O)Nc1cc(F)c(C(=O)O)c(F)c1)c(O)c2Cl` [NRX195183] the same measures were 1560, 9840 and 11. With `CC(C)Oc1cc(C(=O)Nc2ccc(C(=O)O)c(F)c2)cc(Cl)c1OC(C)C`, the Ratio EC50 in data set [2] stood at 2.7. Same read-out and setting: for `CCOc1c(Cl)cc(C(=O)Nc2ccc(C(=O)O)cc2)cc1OC1CCC1` the value was 1. With `CC(C)(C)Oc1cc(C(=O)Nc2ccc(C(=O)O)cc2)cc(Cl)c1OC(C)(C)C`, the Ratio EC50 in data set [3] was 38; in data set [4], 162; in data set [2], 0.9. `CCOc1c(Cl)cc(C(=O)Nc2ccc(C(=O)O)c(Cl)c2)cc1Cl`: in data set [2], the Ratio EC50 was 151.

For the compound `CCOc1c(Cl)cc(C(=O)Nc2ccc(C(=O)O)c(F)c2)cc1Cl`, the Ratio EC50 in data set [2] is 25. One may read the bioavailability as the share of a dose that reaches the circulation, judged against a reference dose that is usually intravenous. A lower bioavailability goes with poor availability. With `CCOc1c(Cl)cc(C(=O)Nc2ccc(C(=O)O)cc2)cc1Cl`, in data set [5], the bioavailability was more than 35%. Turning to `CCOc1c(Cl)cc(C(=O)Nc2ccc(C(=O)O)c(F)c2)cc1OC(C)C`, the Ratio EC50 in data set [2] was found to be 1.1. As to `CCOc1cc(C(=O)Nc2ccc(C(=O)O)cc2)cc(OC(C)C)c1OCC`, the Ratio EC50 in data set [3] was found to be 2450; in data set [4] it was 960; in data set [2], 29. For `CCOc1cc(C(=O)Nc2ccc(C(=O)O)cc2)cc(Cl)c1OC(C)C` the same measures were 7.1, 1200 and 2.1. In the case of `CCOc1c(Br)cc(C(=O)Nc2ccc(C(=O)O)cc2)cc1Br`, the Ratio EC50 in data set [2] is 5. Same read-out and setting: the same measure for `CCOc1c(Cl)cc(C(=O)Nc2ccc(C(=O)O)c(C)c2)cc1OC`: 33.

For the compound `CCOc1c(Cl)cc(C(=O)Nc2ccc(C(=O)O)c(O)c2)cc1Cl`, in data set [2], the Ratio EC50 came out at 33. On the same count and under the same terms, the same measure for `Cc1cc(NC(=O)c2cc(Cl)c(OC(C)C)c(OC(C)C)c2)ccc1C(=O)O`: 0.97.

As to `O=C(O)c1ccc(NC(=O)c2cc(Cl)c(OC3CCCC3)c(OC3CCCC3)c2)cc1`, the Ratio EC50 in data set [3] was 55; in data set [4], 571; in data set [2], 1.7. For `CCCCOc1c(Cl)cc(C(=O)Nc2ccc(C(=O)O)cc2)cc1Cl` the same measures were 717, 1480 and 84. Turning to `CC(C)Oc1cc(C(=O)Nc2ccc(C(=O)O)cc2)cc(OC(C)C)c1OC(C)C`, the Ratio EC50 was 2600 in data set [3], 225 in data set [4] and 27 in data set [2]. For the compound `CCOc1cc(C(=O)Nc2ccc(C(=O)O)c(C)c2)cc(Cl)c1OC(C)C`, the Ratio EC50 in data set [2] came out at 7.

Take `CCOc1c(Cl)cc(NC(=O)c2ccc(C(=O)O)cc2)cc1Cl`: the Ratio EC50 is 355 in data set [3], more than 108000 in data set [4] and 30 in data set [2].

On to `CC(C)Oc1c(Cl)cc(C(=O)Nc2ccc(C(=O)O)cc2)cc1Cl`, for which the Ratio EC50 came to 1420 in data set [3], 823 in data set [4] and 7 in data set [2].

For `CCOc1c(Cl)cc(C(=O)Nc2ccc(C(=O)O)c(C(F)(F)F)c2)cc1Cl`, the Ratio EC50 in data set [2] amounted to 1.7.

`CCCOc1c(Cl)cc(C(=O)Nc2ccc(C(=O)O)cc2)cc1Cl`: the values for the Ratio EC50 in data set [3], in data set [4] and in data set [2] were 139, 1200 and 15, respectively. Take `COc1c(Cl)cc(C(=O)Nc2ccc(C(=O)O)c(F)c2)cc1OC(C)C`: the Ratio EC50 in data set [2] came to 6.7.

For the compound `O=C(O)c1ccc(NC(=O)c2cc(Cl)c(O)c(Cl)c2)cc1`, the Ratio EC50 came to 642 in data set [3], 5000 in data set [4] and 92 in data set [2].

`CCOc1c(OC2CCCC2)cc(C(=O)Nc2ccc(C(=O)O)cc2)cc1OC1CCCC1`: the Ratio EC50 in data set [3] was 4200; in data set [4], 550; in data set [2], 29. For `CCOc1c(C(C)(C)C)cc(C(=O)Nc2ccc(C(=O)O)cc2)cc1C(C)(C)C`, in data set [2], the Ratio EC50 worked out at 0.2.
